# Data reported in patent US20170319552A1, “ATROPISOMERS OF TRIAZOLE DERIVATIVE” (ARDEA BIOSCIENCES, INC., priority 2016, published 2017).
# Where two headings read alike, the source gives them in different places.
# Key:
# [1] = Atropisomer interconversion, thermal challenge in organic solvent (acetonitrile); type: physicochemical
# Experimental: (§1) The individual atropisomers of Compound (I), atropisomer 1 and atropisomer 2 (elution order from normal-phase chiral chromatography) were exposed to various conditions, including thermal challenge in both organic and aqueous media and exposure to simulated biological conditions, to ascertain whether they readily interconvert.
# Samples of each separate atropisomers were held at 60° C. for four days and then analyzed by high performance liquid chromatography (AGMS02 Agilent 1100) on a normal phase amylose-based chiral column (ChiralPak IA-3, 3 μm, 100×4.6 mm, column 244), using isocratic elution and UV detection at 226 nm (see example 1).
# [2] = Atropisomer interconversion, thermal challenge in aqueous solvent (dilute sodium bicarbonate); type: physicochemical
# Experimental: as §1
# Atropisomer 1 was dissolved in dilute aqueous sodium bicarbonate solution. Atropisomer 2 was dissolved in dilute aqueous sodium bicarbonate solution. […] Samples of the resulting solutions were exposed to room temperature (rt), 60° C., and 100° C. for four days. After four days, the samples were concentrated to dryness (SpeedVac evaporator—DNA120, property H001630), redissolved in acetonitrile and analyzed by high performance liquid chromatography (AGMS02 Agilent 1100) on a normal phase amylose-based chiral column (ChiralPak IA-3, 3 μm, 100×4.6 mm, column 244), using isocratic elution and UV detection at 226 nm (see example 1). […] Sample chromatograms at t0, 60° C., and 100° C. after four days, are depicted in FIG. 3A, FIG. 3B and FIG. 3C respectively.
# [3] = biological target: recombinant human CYP2C9 (Homo sapiens, UniProt P11712); assay: Metabolite formation with recombinant human CYP2C9; type: in vitro ADME
# Experimental: (§2) The formation of M3, M3c, M4 and M6 from each atropisomer in liver microsomal and recombinant CYP incubations was determined, based on the peak area ratio of analyte over internal standard (IS)
# [4] = In vitro metabolism, human liver microsomes in the presence of mEH inhibitor valpromide; type: in vitro ADME
# Experimental: (§3) Human liver microsomes (0.5 mg/mL; mixed gender, ultrapooled, BD Biosciences, catalog number 452117) were incubated at 37±1° C. in 0.2 mL (final volume) of incubation mixtures containing potassium phosphate buffer (100 mM, pH7.4), MgCl2 (3 mM), NADPH (1 mM), atropisomer (1, 10, or 50 μM) and valpromide (0, 50, or 100 μM) (all experiments performed in duplicate). Reactions were initiated by addition of NADPH solution and terminated at predetermined time point (30 min) by addition of stop reagent (300 μL chilled acetonitrile containing 0.1 μM of 7-hydroxycoumarin as an internal standard). After incubation, microsomal proteins were precipitated by centrifugation at 3300×g for 15 min at 4° C. Supernatant fractions were analyzed by LC-MS/MS.
# (§4) HPLC mass spectrometer system: An API4000 triple quadrupole mass spectrometer equipped with electrospray ionization ion source was used for quantitation and operated in positive mode. The HPLC system consisted of a CTC Analytics PAL autosampler, an Agilent 1100 series degasser (G1379A), and an Agilent 1100 series binary pump (G1312A). […]
# as §2
# [5] = In vitro metabolism, incubations with human liver microsomes; type: in vitro ADME
# Experimental: as §3, with “and the atropisomers” for “atropisomer”, “50” for “50 μM) and valpromide (0, 50, or 100”, “duplicate). Stock solutions of atropisomers were prepared with DMSO at 100 mM. The final concentration of DMSO in the incubation was at or less than 0.05%.” for “duplicate).”
# as §4, §2
# [6] = In vivo human metabolism, plasma and urine pharmacokinetics after single oral dose of racemic Compound (I); settings: human
# Experimental: Plasma samples were collected prior to dosing (within 30 minutes before dosing) and at the following timepoints: 0.5, 1, 1.5, 2, 3, 4, 5, 6, 8, 10, 12, and 24 hours postdose. Urine was also collected. […] The supernatant was diluted with injection solvent and analyzed by HPLC with tandem mass spectrometry (LC/MS/MS). […] The calibration curves were linear over the concentration range between 5.00 ng/mL and 2000 ng/mL with a lower limit of quantification (LLOQ) of 5.00 ng/mL.
# Using the above data, the following plasma pharmacokinetic parameters were calculated using validated Phoenix WinNonlin, version 6.3 (Pharsight Corporation, Mountain View, Calif.) and are shown (geometric mean 95% CI) in tables 11, 12, and 13 below.
# • Cmax: Maximum observed concentration (μg/mL) • Tmax: Time of occurrence of maximum observed concentration (hr) • AUC0-24: Area under plasma concentration-vs-time curve, from time 0 to 24 hours postdose (μg·hr/mL) • C24: Concentration 24 hours post dose (μg/mL) • t1/2: Apparent terminal half-life (hr)
# [7] = Urine PK Parameters (Geometric mean, CI 95%), single oral 400 mg racemic Compound (I)
# [8] = plasma, geometric mean, single oral 400 mg racemic Compound (I)
# Sequence of recombinant human CYP2C9 (P11712 whole entry): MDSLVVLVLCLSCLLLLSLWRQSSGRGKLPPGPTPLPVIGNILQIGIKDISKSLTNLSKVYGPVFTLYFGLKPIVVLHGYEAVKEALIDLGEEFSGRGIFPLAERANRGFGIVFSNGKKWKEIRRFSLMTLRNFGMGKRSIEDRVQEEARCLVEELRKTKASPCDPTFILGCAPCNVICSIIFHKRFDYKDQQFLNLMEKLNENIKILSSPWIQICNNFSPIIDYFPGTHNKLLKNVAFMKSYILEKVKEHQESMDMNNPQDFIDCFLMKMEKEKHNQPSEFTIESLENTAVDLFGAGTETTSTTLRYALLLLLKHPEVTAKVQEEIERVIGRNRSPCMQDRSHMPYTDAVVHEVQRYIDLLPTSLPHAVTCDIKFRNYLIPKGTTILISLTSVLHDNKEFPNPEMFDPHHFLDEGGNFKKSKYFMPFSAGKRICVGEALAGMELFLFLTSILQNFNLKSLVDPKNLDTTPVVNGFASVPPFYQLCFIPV
smiles,measurement,setting,value
"O=C(O)CSc1nnc(Br)n1-c1ccc(C2CC2)c2ccccc12 (single isomer, unassigned) [Atropisomer 1, (−)-2-(5-bromo-4-(4-cyclopropylnaphthalen-1-yl)-4H-1,2,4-triazol-3-ylthio)acetic acid]",% Atropisomer 1,"[1]; acetonitrile 0.25 mg/mL, t0",99.7%
same,% Atropisomer 2,"[1]; acetonitrile 0.25 mg/mL, t0",0.3%
same,% Atropisomer 1,"[1]; acetonitrile, 60° C. 4 days",99.7%
same,% Atropisomer 2,"[1]; acetonitrile, 60° C. 4 days",0.3%
same,% Atropisomer 1,[2]; 60° C. 4 days,99.8%
same,% Atropisomer 2,[2]; 60° C. 4 days,0.2%
same,% Atropisomer 1,[2]; 100° C. 4 days,99.6%
same,% Atropisomer 2,[2]; 100° C. 4 days,0.4%
same,% Atropisomer 1,"[2]; rt, 4 days",99.8%
same,% Atropisomer 2,"[2]; rt, 4 days",0.2%
same,% Atropisomer 1,[2]; t0 (control),99.8%
same,% Atropisomer 2,[2]; t0 (control),0.2%
same,"Formation of M3c, CYP2C9 mediated, atropisomer 1 versus atropisomer 2",[3],significantly greater
same,M3c level in the presence of valpromide (mEH inhibitor),[4],greatly increased
same,M3c formation,[5],predominantly formed
same,Ae0-24,[6]; [7],66.3 mg
same,CLR0-24,[6]; [7],42.6 mL/min
same,concentration at 0.5 h,"[6]; male, plasma, po, 400 mg, 0.5 hr postdose, single oral 400 mg Compound (I) racemic mixture, adult male subjects",65 ng/mL
same,concentration at 1 h,"[6]; male, plasma, po, 400 mg, 1 hr postdose, single oral 400 mg Compound (I) racemic mixture, adult male subjects",1720 ng/mL
same,concentration at 1.5 h,"[6]; male, plasma, po, 400 mg, 1.5 hr postdose, single oral 400 mg Compound (I) racemic mixture, adult male subjects",3600 ng/mL
same,concentration at 2 h,"[6]; male, plasma, po, 400 mg, 2 hr postdose, single oral 400 mg Compound (I) racemic mixture, adult male subjects",4460 ng/mL
same,concentration at 3 hr,"[6]; male, plasma, po, 400 mg, 3 hr postdose, single oral 400 mg Compound (I) racemic mixture, adult male subjects",5740 ng/mL
same,concentration at 4 hr,"[6]; male, plasma, po, 400 mg, 4 hr postdose, single oral 400 mg Compound (I) racemic mixture, adult male subjects",4560 ng/mL
same,concentration at 5 hr,"[6]; male, plasma, po, 400 mg, 5 hr postdose, single oral 400 mg Compound (I) racemic mixture, adult male subjects",3430 ng/mL
same,concentration at 6 hr,"[6]; male, plasma, po, 400 mg, 6 hr postdose, single oral 400 mg Compound (I) racemic mixture, adult male subjects",1960 ng/mL
same,concentration at 8 hr,"[6]; male, plasma, po, 400 mg, 8 hr postdose, single oral 400 mg Compound (I) racemic mixture, adult male subjects",811 ng/mL
same,concentration at 10 hr,"[6]; male, plasma, po, 400 mg, 10 hr postdose, single oral 400 mg Compound (I) racemic mixture, adult male subjects",415 ng/mL
same,concentration at 12 hr,"[6]; male, plasma, po, 400 mg, 12 hr postdose, single oral 400 mg Compound (I) racemic mixture, adult male subjects",248 ng/mL
same,concentration at 24 h,"[6]; male, plasma, po, 400 mg, 24 hr postdose, single oral 400 mg Compound (I) racemic mixture, adult male subjects",33 ng/mL
same,AUC(0-t),"[6]; male, plasma, po, 400 mg, Plasma Concentration (Mean), single oral 400 mg racemic Compound (I), read-out: AUC0-24",27100 ng·h/mL
same,Cmax,"[6]; male, plasma, po, 400 mg, Plasma Concentration (Mean), single oral 400 mg racemic Compound (I), read-out: Cmax",6600 ng/mL
same,Cmax,"[6]; male, plasma, po, 400 mg, plasma, geometric mean, single oral 400 mg racemic Compound (I), read-out: Cmax: Maximum observed concentration",6230 ng/mL
same,half-life,"[6]; male, plasma, po, 400 mg, plasma, geometric mean, single oral 400 mg racemic Compound (I), read-out: t1/2: Apparent terminal half-life (converted)",3.59 h
same,concentration at 0 h,"[6]; male, plasma, po, 400 mg, time 0 hr (prior to dosing), single oral 400 mg Compound (I) racemic mixture, adult male subjects",0 ng/mL
same,Tmax,"[6]; male, plasma, po, 400 mg, read-out: Tmax: Time of occurrence of maximum observed concentration",3 h
same,"AUC0-24: Area under plasma concentration-vs-time curve, from time 0 to 24 hours postdose",[6]; [8],25.9 µg·h/mL
same,C24 h: Concentration 24 hours post dose,[6]; [8],21.6 ng/mL
